Tests used:
[1] = system: ES; assay: ES activity after incubation with proteinase inhibitors; parameters: species or system Lucilia sericata
[2] = system: fibroblasts; assay: Fibroblast adhesion to fibronectin-coated surface (ATP assay); format: cell-based; conditions: for cell adhesion: 1.6 μg/ml commercial trypsin
Method: (§1) FIG. 10 is two graphs showing the effect of ES, trypsin, chymotrypsin and trypsin/chymotrypsin mix upon fibroblast cell adhesion to a FN-coated surface, following 24 h incubation, in relation to each enzyme concentration's proteolytic activity. Such activity was assessed by monitoring the release of 7-amino-4-methylcoumarin (AMC) from synthetic peptide substrates for a. trypsin or b. chymotrypsin. Cell adhesion was measured using a firefly luciferase-based luminescent adenosine triphosphate (ATP) assay. Results were expressed as mean % cell adhesion of the control±1SD (n=3).
The present inventors undertook a further experiment to compare the effect of the ES chymotrypsin with a commercially available bovine chymotrypsin. The effect of ES upon fibroblast adhesion to fibronectin was therefore compared with commercially available preparations of trypsin and chymotrypsin. This was achieved by seeding fibroblasts upon a fibronectin-coated surface in the presence of various concentrations of ES, commercial trypsin or commercial chymotrypsin. […] An adenosine triphosphate (ATP) assay was then applied in order to quantify the relative numbers of cells remaining upon the surface according to the concentration of ATP detected.

[3] = Chymotryptic activity, release of AMC from fluorescent peptide substrate; format: biochemical
Method: as §1
(§2) Chymotryptic/tryptic activity was assessed by monitoring the release of 7-amino-4-methylcoumarin (AMC) from Suc-Ala-Ala-Pro-Phe-AMC (chymotryptic) and Tosyl-Gly-Pro-Arg-AMC (tryptic). 50 μl of each fraction was incubated with 150 μl of substrate (5 μM) diluted in PBS. Samples were incubated at 37° C. for 30 minutes after which the fluorescence was measured (excitation 365 nm, emission detection 465 nm) using a Dynex MFX microplate fluorimeter. Proteolytic activity is expressed as the number of fluorescence units emitted over 30 minutes following the deduction of a time zero reading.

[4] = Tryptic activity, release of AMC from fluorescent peptide substrate; format: biochemical; conditions: 1.6 μg/ml commercial trypsin vs 5 μg/ml ES
Method: as §1, §2

[5] = 0.1 μg/ml commercial chymotrypsin
[6] = 0.2 μg/ml commercial chymotrypsin

Molecule: N=C(N)c1ccc(CS(=O)(=O)F)cc1 [APMSF, 4-(amidinophenyl) methane sulphonyl fluoride]
- tissue remodelling and regeneration properties of the ES after incubation with inhibitor [1]: not lost/inhibited

Molecule: O=S(=O)(F)Cc1ccccc1 [PMSF, phenyl methanesulphonyl fluoride]
- tissue remodelling and regeneration properties of the ES after incubation with inhibitor [1]: lost or inhibited

Molecule: chymotrypsin [commercial chymotrypsin]
- fibroblast adhesion [2, 5]: no ability to modify fibroblast adhesion
- fibroblast adhesion [2, 6]: no effect upon fibroblast adhesion
- activity against chymotrypsin-specific substrate relative to ES [3, 5]: 94.1 % of the activity of 5 μg/ml ES
- activity against chymotrypsin-specific substrate relative to ES [3, 6]: 204.9 % of the activity of 5 μg/ml ES

Molecule: trypsin [commercial trypsin]
- cell adhesion ([2]; 24 hours incubation): 34.9 % of the control
- cell adhesion ([2]; 48 hours incubation): 24.7 % of the control
- activity against trypsin-specific substrate relative to ES [4]: 103.2 % of the activity of ES

B1: Soybean Trypsin Inhibitor (protein, UniProt P01070 25-205, looked up)
Trypsin inhibitor A: DFVLDNEGNPLENGGTYYILSDITAFGGIRAAPTGNERCPLTVVQSRNELDKGIGTIISSPYRIRFIAEGHPLSLKFDSFAVIMLCVGIPTEWSVVEDLPEGPAVKIGENKDAMDGWFRLERVSDDEFNNYKLVFCPQQAEDDKCGDIGISIDHDDGTRRLVVSKNKPLVVQFQKLDKESL
- ability of ES to enhance fibroblast migration and degrade extra-cellular matrix proteins after incubation with inhibitor [1]: removes the ability of the ES to enhance fibroblast migration and its ability to degrade extra-cellular matrix proteins

— patent US20100008898A1, “CHYMOTRYPSIN FROM LUCILIA SERICATA LARVAE AND ITS USE FOR THE TREATMENT OF WOUNDS” (priority 2006, published 2010)
